From the METLIN SMRT retention time set (Domingo-Almenara et al. 2019)

Experiment: gradient 5% acetonitrile 3 min, to 50% in 2 min, to 85% in 15 min, held 3 min, 100 µL/min
Conditions: column: Zorbax Extend-C18 2.1 x 50 mm; eluents: water / acetonitrile, 0.1% formic acid
Method in brief: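 Values are retention times taken from adduct peaks that software picked and an analyst inspected. The pure standards were run as mixtures of ~100 molecules on HPLC linked to a quadrupole time-of-flight mass spectrometer, in positive and negative ionization mode. A Zorbax Extend-C18 column (2.1 × 50 mm, 1.8 μm) was used at 100 μL/min with water and acetonitrile, each including 0.1% formic acid.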

RP-LC retention time | Structure (SMILES)
588 s | CCc1ccc(CNC(=O)C2CCN(c3cncnc3N3CCN(C)CC3)CC2)cc1
972 s | O=C(Cn1cnc2c(sc3nc(-c4ccccc4)ccc32)c1=O)NC1CCCCC1
1220 s | CCOc1ccc(-c2nc(Cc3noc(-c4cccc(OC)c4)n3)c(C)o2)cc1
1110 s | O=C(NCc1ccc(Br)cc1)C1CCCN(c2nccnc2Sc2ccccc2)C1 (centres undefined)
1080 s | Cc1ccc(N2C(=O)N(Cc3ccc(F)cc3)S(=O)(=O)c3cccnc32)cc1
635 s | O=C(Cn1cc(-c2ccc(F)cc2)oc1=O)NCc1ccc(N2CCCCC2)cc1
756 s | CCN1c2ccccc2C(=O)NC12CCN(C(=O)c1ccc(F)cc1)CC2
674 s | CCOC(=O)c1ccc(NC(=O)N2CCC(n3cnc4cccnc43)CC2)cc1
555 s | O=C(c1cn2ccccc2n1)N1CCN(Cc2cccc(F)c2)CC1
1000 s | Cc1ccc(-c2nc(Cn3nnc(C(=O)NCc4ccco4)c3C)c(C)o2)cc1
996 s | Cc1ccccc1Oc1nccn2c(=O)n(CC(=O)Nc3ccc(Cl)c(Cl)c3)nc12
604 s | CCCC(=O)Nc1ccc2c(c1)N(C(=O)c1ccco1)CCC2
892 s | CCc1nnc(-c2ccc3ccn(CC(=O)N4CCN(c5ccccc5F)CC4)c3c2)o1
763 s | CN(Cc1ccoc1)C(=O)NC1CCCC1
860 s | O=C(NCc1cccs1)C(=O)NCC1(c2cccs2)CC1
994 s | COc1ccc2c(c1)C(C)CC(C)(C)N2C(=O)CSc1ncccn1 (centres undefined)
893 s | CCOc1ccc(NC(=O)c2oc3cc(C)c(Cl)cc3c2C)c2cccnc12
924 s | COc1ccc(OC)c(CNC(=O)C2CCCN(c3ccc(=O)n(-c4ccc(C)c(Cl)c4)n3)C2)c1 (centres undefined)
1390 s | CCCN(C(=O)c1ccco1)c1nc(-c2ccc(C)cc2)cs1
695 s | COc1ccc(NC(=O)Cn2cnc3nc4c(cc3c2=O)CCCC4)cc1
605 s | CC(C)NC(=O)C1CCN(c2nc3ccc(-c4cccnc4)nc3s2)CC1
824 s | CC(C)CNC(=O)NCCC1CCN(S(=O)(=O)c2ccc(F)cc2)CC1

RP-LC retention time | Structure (SMILES)
839 s | Cc1ccc(Nc2c(-c3ccc(N(C)C)cc3)nc3ccc(C)cn23)cc1
1160 s | CCOc1cccc(-c2noc(Cc3nnc(-c4cccc(Br)c4)o3)n2)c1
802 s | CCn1c(C(=O)NCCCN2CCCC(C)C2)cc2c(-c3cccs3)nn(-c3ccccc3)c21 (centres undefined)
1460 s | CCOc1ccc(C2c3[nH]c4ccccc4c3CCN2C(=O)CCC2CCCC2)cc1 (centres undefined)
633 s | COCCN1C(=O)[C@H]2CN(Cc3cc(Br)ccc3OC)C[C@H]2C1=O
590 s | O=C(CN1C(=O)C2CCCCN2C(=O)c2ccccc21)NCCN1CCCCCC1 (centres undefined)
592 s | CCNc1cc(N2CCCC(CCC(=O)NC(C)c3cn(C)nc3C)C2)ncn1 (centres undefined)
819 s | Cc1nnc(-c2nnc(NCc3ccccc3F)c3ccccc23)o1
635 s | Cc1ccc(N2C(=O)CCS2(=O)=O)cc1S(=O)(=O)N1CCN(c2ccccn2)CC1
661 s | Cc1nc(-c2ccccc2Cl)sc1C(=O)N1CCN(c2ccccn2)CC1
778 s | COc1ccc2c(CCNC(=O)c3ccc(F)cc3)c[nH]c2c1
589 s | Cc1ccc(CSc2nccc3c2ccn3CC(=O)NCCN2CCN(C)CC2)cc1
885 s | COc1ccc(-c2nnc(-c3cccc(S(=O)(=O)N4CCCC4)c3)o2)cc1OC
750 s | O=C1CCCc2cc(S(=O)(=O)N3CCCC3C(=O)N3CCN(c4ccccc4)CC3)ccc2N1 (centres undefined)
1040 s | Cc1ccc(NC(=O)C2CCC(=O)N2S(=O)(=O)c2ccc(C)c(C)c2)cc1C (centres undefined)
999 s | O=C1CC(c2nc(-c3ccc4c(c3)OCO4)no2)CN1c1cccc(Cl)c1 (centres undefined)
592 s | COc1ccc(CSc2nccc3c2ccn3CC(=O)N2CCN(c3ccccn3)CC2)cc1
853 s | O=S(=O)(c1ccc(-c2nnc(C3CC3)o2)o1)N1CCCCC1
1020 s | Cc1ccc(-c2cc3c4nnc(SCC(=O)Nc5ccccc5Cl)n4ccn3n2)cc1C
694 s | CCOCC(=O)N1CCC2(CC1)C(=O)N(C)c1ccccc12
557 s | CN1CCN(C(CNC(=O)c2ccc(Cl)cc2)c2ccc(N(C)C)cc2)CC1 (centres undefined)
1060 s | COc1ccc(Cc2nc(-c3ccc4oc(C)nc4c3)no2)c(Cl)c1

RP-LC retention time | Structure (SMILES)
676 s | Cc1ccc(Nc2c(-c3ccc(O)cc3)nc3c(C)cccn23)cc1
1100 s | CC(C)(C)c1ccc(O)c(NC(=O)c2cn(-c3ccc(S(=O)(=O)N4CCCCC4)cc3)cn2)c1
881 s | CCOC(=O)C(=O)Nc1ccc(SCc2nnc(-c3ccccc3)o2)cc1
871 s | COCCN1C(=O)c2ccccc2C(C(=O)Nc2ccc(OC)cc2OC)C12CCCC2 (centres undefined)
541 s | CN(C)C(=O)c1cccc(C(=O)N(C)C)n1
601 s | Cc1cc(C)c(S(=O)(=O)N(CCN2CCCCC2C)CC(=O)N2CCNCC2)cc1C (centres undefined)
590 s | Cc1cc(N2CCOCC2)n2nc(CN3CCc4ccccc4C3)nc2n1
862 s | O=C(Cn1nc2c(cc1=O)CCCC2)Nc1nc(-c2ccc3c(c2)OCCCO3)cs1
545 s | COc1ccc(CNC(=O)c2cn3ccc(C)cc3n2)cc1
600 s | Cc1cc(=O)n(CC(=O)Nc2cccc(C)c2C)c(N)n1
746 s | CN(C)S(=O)(=O)N1CCCC1Cc1noc(-c2cccnc2)n1 (centres undefined)
747 s | CCc1cc(=O)n(CC(=O)N(CC)c2ccccc2)c(N2CCOCC2)n1
889 s | CC(C)Cc1cc(-c2nnc3sc(-c4ccccc4F)nn23)n[nH]1
629 s | Cc1cc(N2CCN(C(=O)COc3ccc(Cl)cc3)CC2)nc2nncn12
781 s | Cc1cc2nn(CC(=O)NCc3ccccc3)c(=O)n2c(-c2ccc(F)cc2)n1
856 s | CC(C)Cc1ccc(S(=O)(=O)N2CCC3(CC2)NCCN=C3NCc2ccccc2)cc1
706 s | CCC1CCCCN1C(=O)c1cnc2nc(C)ccc2c1Nc1ccc(C)cc1C (centres undefined)
743 s | O=C(Nc1nc(CC(=O)N2CCCc3ccccc32)cs1)c1ccco1
844 s | Cc1nc(-c2csc(S(=O)(=O)N3CCC(C(=O)NCc4ccccc4)CC3)c2)no1
744 s | COc1ccc(S(=O)(=O)N2CCCC(c3nnnn3C)C2)cc1 (centres undefined)
847 s | Cn1cc(-c2cc3n(n2)CCC(=O)N3CCCC(=O)NC2CCCCC2)c2ccccc21
855 s | COc1ccc(N2CC(C(=O)N3CCC(c4noc(-c5ccccc5)n4)CC3)CC2=O)cc1 (centres undefined)

RP-LC retention time | Structure (SMILES)
766 s | CN1C(=O)CO[C@@H](C(=O)Nc2ccc(F)cc2F)[C@@H]1c1ccccc1
773 s | O=C(NC1CCN(c2ccccc2)C1=O)c1ccc(Br)o1 (centres undefined)
942 s | CCC(C)NC(=O)c1c2c(cn(-c3ccccc3)c1=O)C(=O)CC(C)(C)C2 (centres undefined)
702 s | Cc1cc(=O)c2cc(C(=O)Nc3nc4ccccc4s3)ccc2[nH]1
732 s | CC(C)Sc1ccc(CC(=O)N2CC(c3nc(-c4ncccn4)no3)C2)cc1
680 s | O=C(NCc1ccccc1F)C1CCN(c2cc(N3CCCCC3)ncn2)CC1
887 s | COc1ccc(C2=NC(c3ccc(Cl)cc3)C(c3ccc(Cl)cc3)N2C(=O)N2CCNC(=O)C2)c(OC(C)C)c1 (centres undefined)
594 s | O=C(CN1CCCc2nc(C3CC3)ncc2C1=O)NCCCN1CCCC1=O
722 s | CCCNC(=O)N1CCN(Cc2nc3cc(-c4ccccc4)ccc3o2)CC1
856 s | O=C(Nc1ccc(Cl)cc1F)C1CCc2nc(N3CCOCC3)ncc2C1 (centres undefined)
1310 s | Cc1ccc(-c2nc(C3CCN(S(=O)(=O)c4ccc5c(c4)CCC5)CC3)no2)cc1
618 s | COc1ccc2[nH]c(=O)c(CCC(=O)N(C)Cc3cn(C)nc3C)cc2c1
588 s | CN1CCN(c2ccc(-c3ccc(NC(=O)Nc4cccc(Cl)c4)cc3)nn2)CC1
783 s | CC(C)n1cnc2ccc(-c3noc(COc4ccc(F)cc4)n3)cc21
640 s | Cc1ncoc1C(=O)N1CCC(c2noc(-c3cccnc3)n2)C1 (centres undefined)
904 s | O=C(C1=NN(Cc2cccc(F)c2)c2cc(Cl)ccc2S1(=O)=O)N1CCOCC1
847 s | CCCNC(=O)c1cn(-c2ccc(-c3nc(C(C)C)no3)cn2)cn1
622 s | Cn1nc(C(=O)N2CCCCC2)c2c1CCN(C(=O)CCC(=O)N1CCCC1)C2
993 s | COc1ccc(-c2noc(C3CCCN(S(=O)(=O)c4ccc(C)cc4)C3)n2)cc1OC (centres undefined)
838 s | COCCNC(=O)c1nnc(-c2ccc(S(=O)(=O)N3CCC(C)CC3)cc2)o1
785 s | CC(C)c1ccc(S(=O)(=O)N2CCc3nn(C)c(=O)n3CC2)cc1
887 s | Cc1cc(-c2nnc(C3CCC3)o2)c(C)n1CC(=O)Nc1ccccc1F

Structure (SMILES) | RP-LC retention time
CCCCC(=O)N1CCC2(C1)C(=O)N(C)c1ccc(OC)cc12 (centres undefined) | 744 s
